One test deals with T1, human FSH receptor (Homo sapiens, UniProt P23945).
T1 construct: host or cells: CHO-K1 (CHO FSH-R 6CRE-Luc, 1D7 cells)
T1 sequence (P23945 18-695): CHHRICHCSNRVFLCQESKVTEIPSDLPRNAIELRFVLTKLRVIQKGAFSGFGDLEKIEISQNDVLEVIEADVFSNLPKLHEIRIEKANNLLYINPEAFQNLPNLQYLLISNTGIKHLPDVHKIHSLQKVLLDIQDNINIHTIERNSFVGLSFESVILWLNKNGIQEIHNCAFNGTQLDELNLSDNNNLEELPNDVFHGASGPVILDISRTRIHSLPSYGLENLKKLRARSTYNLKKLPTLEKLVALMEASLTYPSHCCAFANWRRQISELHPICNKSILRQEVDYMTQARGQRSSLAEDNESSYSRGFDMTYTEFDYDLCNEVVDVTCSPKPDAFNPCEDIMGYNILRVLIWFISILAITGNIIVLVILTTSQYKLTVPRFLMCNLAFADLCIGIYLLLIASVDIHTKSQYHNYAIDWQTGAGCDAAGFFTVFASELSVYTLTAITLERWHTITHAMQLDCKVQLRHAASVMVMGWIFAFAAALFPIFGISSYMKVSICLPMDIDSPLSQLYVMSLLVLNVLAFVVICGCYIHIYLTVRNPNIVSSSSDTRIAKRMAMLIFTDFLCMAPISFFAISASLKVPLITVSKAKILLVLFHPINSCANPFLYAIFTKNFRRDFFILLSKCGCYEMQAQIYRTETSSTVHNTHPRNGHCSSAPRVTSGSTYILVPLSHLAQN
The experiment in a line: FSH receptor-dependent CRE-luciferase reporter gene assay (CHO FSH-R 6CRE-Luc cells). The format is cell-based. Particulars: dose-response format in presence of EC50 of purified human FSH; * n=3, ** n=2 averages. From the text: FOLLICLE-STIMULATING HORMONE RECEPTOR-DEPENDENT CRE-LUCIFERASE REPORTER GENE ASSAY FOR THE IDENTIFICATION OF FOLLICLE-STIMULATING HORMONE (FSH) ANTAGONISTS
A Chinese hamster ovarian cell line that stably produces the human FSH receptor and a luciferase reporter gene regulated by cAMP response elements was used to identify and determine the relative potencies of human FSH receptor antagonists. See for example, Kelton, C. A., et al. Mol. Cell. Endocrinol. 89:141-151 (1992), Tilly, J. L., et al. Endocrinology 131:799-806(1992), and George, S. E., et al. J. Biomol. Screening 2:235-240 (1997).
Compound Vehicle: Stock compounds were solubilized in an appropriate vehicle, e.g., phosphate buffered saline (PBS) or dimethyl sulfoxide (DMSO), at 30 mM. The compounds subsequently were diluted in DMSO to working dilutions of 1 and 20 or 30 mM for 2-dose testing format and 1 μM-10 mM for dose-response format. The DMSO dilutions were diluted 500-fold in sterile growth medium [D-MEM/F-12 (GIBCO/BRL; Grand Island, N.Y.) containing 15 mM HEPES, 2 mM l-glutamine, pyridoxine hydrochloride, phenol red and 5% FETALCLONE® II (HyClone Laboratories, Inc; Logan, Utah), 0.2% DMSO, 100 units penicillin G/ml, and 100 μg streptomycin sulfate/ml (GIBCO/BRL)]. The concentration of the vehicle in each of the compound dilutions was the same.
Positive Controls: Purified human FSH (>98%) was purchased from Cortex Biochem, Inc. (San Leandro, Calif.) and 3-[(2S*,5R*)-5-{[2-(1H-Indol-3-yl)-ethylcarbamoyl]-methyl}-4-oxo-2-(5-phenylethynyl-thiophen-2-yl)-thiazolidin-3-yl]-benzamide (an FSH-R thiazolidinone antagonist) was prepared by processes described by R. A. Scheuerman et al. in U.S. Pat. No. 6,426,357 (Affymax).
The CHO FSH-R 6CRE-Luc cells (1D7 cells) were obtained from Affymax (Palo Alto, Calif.). These Chinese hamster ovary cells (CHO-K1) were engineered genetically to stably express the recombinant human FSH receptor gene and a luciferase reporter gene under the regulation of 6 copies of a cAMP response element. The cells were plated one day prior to treatment into 96-well white opaque plates at a density of 50,000 cells/100 μl/well in growth medium. On the day of treatment, the growth medium was removed from the wells by aspiration and 50 μl of fresh growth medium was added to each well. The cells were incubated at 37° C. in a humidified incubator with 5% CO2/95% air.
The treated cells were incubated for 4 hours at 37° C. in a humidified incubator with 5% CO2/95% air. At the end of the incubation period, luciferase activity was measured by chemiluminescence using a commercially available kit (LucScreen, Tropix, Inc., Bedford, Mass.) according to the manufacturer's specifications, except that Buffer 1 and Buffer 2 were mixed together in equal proportion prior to the addition of 100 μl of the combined reagents to each well. Chemiluminescence was detected using a luminometer (EG & G Berthold Microlumat LB 96 P, Wallac, Gaithersburg, Md.) with chemiluminescence measured for 1 sec/well. Background luminescence was measured for each well prior to the addition of the LucScreen reagent.
In the 96-well 2-dose format, each compound was tested in duplicate at each dose. […] One plate was used to test a maximum of 22 compounds.
The EC50 of purified human FSH alone was tested in triplicate with each test compound. The doses chosen to test each compound were extrapolated from the initial 2-dose screening process. Along with the test compounds, purified human FSH also was tested in a dose response (0.03, 0.1, 0.3, 1, 3, 10, and 30 ng/ml) for a positive control and quality control. One plate was used for 3 test compounds and the FSH positive control.
Luciferase activity is expressed as relative light units/sec/well. Luciferase activity in antagonist was compared to the appropriate negative and positive controls. For 2-dose testing, results are reported as luciferase activity and are expressed as percent inhibition of the response obtained from the EC50 of FSH.
On the technique in general: Reporter assays use an easily measured gene product as a stand-in for the process of interest.

The target in a further test is T2, hFSH-R (Homo sapiens, UniProt P23945).
T2 construct: expressed in transfected cells; host or cells: CHO-3D2 cells (CHO-K1 parental line)
T2 sequence (P23945 18-695): T1 sequence (P23945 18-695)
Briefly: cAMP accumulation (RIA) in CHO-3D2 cells (hFSH-R), hFSH-induced. Particulars: inhibition of cAMP accumulation induced by hFSH at EC20, CHO-3D2 cells. Type of test: cell-based. On the procedure: IN VITRO BIO-ASSAY OF AGONISTS AND ANTAGONISTS TO THE FSH RECEPTOR. SELECTIVITY AND DEPENDENCY OF AGONISTS AND ANTAGONISTS TO THE FSH RECEPTOR
Compound Vehicle: Stock compounds were solubilized in 100% DMSO (Sigma-Aldrich Chemical Co., St. Louis, Mo.) at a concentration of 30 mM. The compounds subsequently were diluted in sterile assay medium consisting of Opti-MEM® I (Invitrogen/Life Technologies, Carlsbad, Calif.) with 0.1% (w/v) BSA (Sigma-Aldrich) prior to use in the bio-assay. The final concentration of DMSO in the assay was 0.1%.
Plated cells are then incubated at 37° C. in a humidified 5% CO2/95% air atmosphere.
Assay: On the day of the assay, cells were washed three times with 100 μl/well of assay medium consisting of Opti-MEM® I (Invitrogen/Life Technologies) with 0.1% (w/v) BSA (Sigma-Aldrich). Medium was removed and 100 μl of assay medium was added to each well. Plates were incubated for an additional 30 minutes at 37° C. […] Reactions were terminated by the addition of 50 μl of 0.2N hydrochloric acid to each well and cAMP-accumulation was measured by radioimmunoassay (RIA) using a commercially available kit (Amersham Biosciences, Piscataway, N.J.).
All test compounds were evaluated in a dose-response paradigm ranging from 0.01 to 30 μM. Controls and test compounds were evaluated in quadruplicate in a 96-well format.
Along with the test compounds, FSH was run also as a postive control in the agonist mode using concentrations ranging from 0.1-1000 ng/ml.
Data were analyzed by one-way analysis of variance and significant differences between treatments and control determined by Least Significant Difference test.
Test compounds were compared to the effect of purified human FSH.

The IC50 is the concentration needed to halve the response being measured. As to `Cc1cc(C(=O)N2Cc3ccc(C(=O)NCc4cccnc4)n3Cc3ccccc32)ccc1-c1ccccc1Cl` [Example 21], the half-inhibitory concentration (IC50) at human FSH receptor came out at 2.9 µM; against hFSH-R, 1 µM.
Consider `O=C(NCc1cccnc1)c1ccc2n1Cc1ccccc1N(C(=O)c1ccc(-c3ccccc3)cc1)C2` [Example 13], for which the figures for the IC50 at human FSH receptor and against hFSH-R were 2.8 µM and 0.7 µM, respectively.
The like results for `O=C(NCc1cccnc1)c1ccc2n1Cc1ccccc1N(C(=O)c1ccc(OC(F)(F)F)cc1)C2` [Example 85] were, in that order, 6.44 µM and 1.1 µM.
`CCNC(=O)Cc1ccccc1-c1ccc(C(=O)N2Cc3ccc(C(=O)NCc4cccnc4)n3Cc3ccccc32)cc1` [Example 66]: the IC50 at human FSH receptor amounted to 3.67 µM; on hFSH-R, 0.81 µM.
The like results for `CC(C)c1ccccc1-c1ccc(C(=O)N2Cc3ccc(C(=O)NCc4cccnc4)n3Cc3ccccc32)cc1` [Example 31] were, in that order, 0.94 µM and 0.33 µM.
The like results for `CSc1ccccc1-c1ccc(C(=O)N2Cc3ccc(C(=O)NCc4cccnc4)n3Cc3ccccc32)cc1` [Example 14, 10-{[2′-(METHYLTHIO)-1,1′-BIPHENYL-4-YL]CARBONYL}-N-(PYRIDIN-3-YLMETHYL)-10,11-DIHYDRO-5H-PYRROLO[2,1-C][1,4]BENZODIAZEPINE-3-CARBOXAMIDE 0.67 HYDRATE] were, in that order, 1.61 µM and 0.77 µM.
The like results for `O=C(NCc1cccnc1)c1ccc2n1Cc1ccccc1N(C(=O)c1ccc(-c3ccccc3O)cc1)C2` [Example 34] were, in that order, 1.55 µM and 0.59 µM.
Regarding `CN(C)C(=O)Cc1ccccc1-c1ccc(C(=O)N2Cc3ccc(C(=O)NCc4cccnc4)n3Cc3ccccc32)cc1` [Example 40], the concentration for half-maximal inhibition (IC50) on human FSH receptor amounted to 0.921 µM; at hFSH-R, 0.32 µM.
The like results for `CC(C)C(O)c1ccccc1-c1ccc(C(=O)N2Cc3ccc(C(=O)NCc4cccnc4)n3Cc3ccccc32)cc1` (centres unmarked) [Example 37] were, in that order, 1.64 µM and 0.49 µM.
The like results for `CCN(CC)c1ccc(C(=O)N2Cc3ccc(C(=O)NCc4cccnc4)n3Cc3ccccc32)cc1` [Example 102] were, in that order, 5.82 µM and 0.8 µM.
As for `COc1ccccc1-c1ccc(C(=O)N2Cc3ccc(C(=O)NCc4cccnc4Oc4ccccc4)n3Cc3ccccc32)cc1` [Example 7, 10-[(2′-METHOXY-1,1′-BIPHENYL-4-YL)CARBONYL]-N-[(2-PHENOXYPYRIDIN-3-YL)METHYL]-10,11-DIHYDRO-5H-PYRROLO[2,1-C][1,4]BENZODIAZEPINE-3-CARBOXAMIDE], the IC50 at human FSH receptor is 5.4 µM; against hFSH-R, 0.7 µM.
The like results for `Cc1cc(C(=O)N2Cc3ccc(C(=O)NCc4cccnc4)n3Cc3ccccc32)ccc1-c1ccccc1F` [Example 20] were, in that order, 3.7 µM and 1.3 µM.
The like results for `NC(=O)Cc1ccccc1-c1ccc(C(=O)N2Cc3ccc(C(=O)NCc4cccnc4)n3Cc3ccccc32)cc1` [Example 38] were, in that order, 0.078 µM and 0.09 µM.
The like results for `CCCc1ccc(C(=O)N2Cc3ccc(C(=O)NCc4cccnc4)n3Cc3ccccc32)cc1` [Example 98] were, in that order, 4.96 µM and 0.4 µM.
Take `COC(=O)Cc1ccccc1-c1ccc(C(=O)N2Cc3ccc(C(=O)NCc4cccnc4)n3Cc3ccccc32)cc1` [Example 32]: the values for the IC50 on human FSH receptor and against hFSH-R were 0.156 µM and 0.02 µM, respectively.
In the case of `CC(C)(C)c1ccc(C(=O)N2Cc3ccc(C(=O)NCc4cccnc4)n3Cc3ccccc32)cc1` [Example 80], the IC50 at human FSH receptor amounted to 4.96 µM; at hFSH-R, 1.1 µM.
The like results for `COc1ccc(CNc2ccc(C(=O)N3Cc4ccc(C(=O)NCc5cccnc5)n4Cc4ccccc43)cn2)cc1` [Example 122] were, in that order, 36.5 µM and above 30 µM.
The like results for `CN(C)c1ccc(C(=O)N2Cc3ccc(C(=O)NCc4cccnc4)n3Cc3ccccc32)cc1` [Example 84] were, in that order, 5.82 µM and 1.2 µM.
As for `N#Cc1ccccc1-c1ccc(C(=O)N2Cc3ccc(C(=O)NCc4cccnc4)n3Cc3ccccc32)cc1` [Example 30], the half-inhibitory concentration (IC50) on human FSH receptor was 1.1 µM; on hFSH-R, 0.27 µM.
The like results for `Cc1cc(C(=O)N2Cc3ccc(C(=O)NCc4cccnc4)n3Cc3ccccc32)ccc1-c1ccccc1C(C)O` (centres unmarked) [Example 50] were, in that order, 1 µM and 0.3 µM.
The like results for `CC(C)C(=O)c1ccccc1-c1ccc(C(=O)N2Cc3ccc(C(=O)NCc4cccnc4)n3Cc3ccccc32)cc1` [Example 36] were, in that order, 1.86 µM and 0.43 µM.
The like results for `CC(O)c1ccccc1-c1ccc(C(=O)N2Cc3ccc(C(=O)NCc4cccnc4)n3Cc3ccccc32)cc1` (single isomer, unassigned; (+)) [Example 54] were, in that order, 0.317 µM and 0.15 µM.

The record behind these values is patent US7678787B2, “Pyrrolobenzodiazepine pyridine carboxamides and derivatives as follicle-stimulating hormone receptor antagonists” (Wyeth, priority 2005, dated 2010).
